Where two headings read alike, the source gives them in different places. One block for each molecule: values may come before it. Where a SMILES comes first, the peptide text is derived from it. Where no end group is shown, it is not given here.
Molecular target: T1, Omi PDZ (GST-Omi PDZ fusion protein) (Homo sapiens, UniProt O43464)
T1 construct: DNA fragment encoding hOmi PDZ domain was cloned into BamHI/XhoI sites of pGEX6P-3 plasmid, creating a GST-hOmiPDZ fusion protein; made in house; host or cells: E. coli BL21(DE3), plasmid pGEX6P-3
T1 sequence (O43464 359-458): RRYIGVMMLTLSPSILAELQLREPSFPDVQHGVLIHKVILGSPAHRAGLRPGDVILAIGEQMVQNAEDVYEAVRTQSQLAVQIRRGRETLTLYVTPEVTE
Assay: Competition ELISA affinity assay: peptide blocks GST-Omi PDZ binding to immobilized biotinylated peptide
Settings: for fold lower affinity (IC50 increase) relative to SWTMFWV (hOmi_c1): compared with peptide SWTMFWV (hOmi_c1); for IC50 / IC50 (μM): competition ELISA
Description: Affinity Assays—The binding affinities of peptides for Omi PDZ were determined as IC50 values using a previously described competition ELISA (18). […] Assay plates were prepared by immobilizing an amino-terminally biotinylated peptide (biotin-GWTMFWV) on maxisorp plates coated with NeuTravidin and blocked with BSA. A fixed concentration of GST-Omi PDZ fusion protein (20 nM) in PBS, 0.5% BSA, 0.1% Tween 20 (PBT buffer) was preincubated for 1 h with serial dilutions of peptide and then transferred to the assay plates. After 1 h incubation, the plates were washed with PBS, 0.05% Tween 20, incubated for 30 min with HRP/anti-GST antibody (1:10,000) in PBT buffer, washed again, and detected with 3,3′,5,5′-Tetramethyl-benzidine/H2O2 (TMB) peroxidase substrate.
The binding affinity of this ligand to Omi PDZ was measured with ELISA competition assay. […] PDZ-opt is an optimized peptide ligand of Omi PDZ derived from a chemically synthesized peptide library (11) with totally different sequence motif from that of the ligands derived from phage libraries. […] Peptides from libC and peptides Mxi2 and PDZ-opt were synthesized with acetylated N termini and free C termini, unless indicated otherwise. Peptides from libN were synthesized with free N termini and amidation at C termini.

[1] = 20 nM GST-Omi PDZ, immobilized biotinylated high affinity peptide, mean, read-out: IC50
[2] = 20 nM GST-Omi PDZ, immobilized biotinylated high affinity peptide, mean
[3] = IC50 (μM), 20 nM GST-Omi PDZ, immobilized biotinylated high affinity peptide, mean

Molecule: CC(=O)N[C@@H](Cc1ccccc1)C(=O)N[C@@H](Cc1c[nH]c2ccccc12)C(=O)N[C@H](C(=O)O)C(C)C [hOmi_c1_t4, F W V] (Ac-Phe-Trp-Val-OH)
- fold lower affinity (IC50 increase) relative to SWTMFWV (hOmi_c1): > 30 fold
- IC50 [1]: 118 ± 32.1 µM

Molecule: SHAWGGWL [hOmi_n1_A3, S H A W G G W L]
- IC50 (μM) [2]: NDI

Molecule: SHWAGGWL [hOmi_n1_A2, S H W A G G W L]
- IC50 (μM) [2]: NDI

Molecule: Ac-SWTMFWV [hOmi_c1, S W T M F W V]
- IC50 [3]: 3.3 µM

Molecule: Ac-RFPHFWV-OH [hOmi_c2, R F P H F W V]
- fold lower affinity (IC50 increase) relative to SWTMFWV (hOmi_c1): 50 fold

Molecule: Ac-GQYYFV-OH [PDZ-Opt, G Q Y Y F V, reference compound]
- fold lower affinity (IC50 increase) relative to SWTMFWV (hOmi_c1): 5 fold
- IC50 [1]: 17.6 ± 5.6 µM

Molecule: SWTMFWV [hOmi_c3, S W T M F W V-CONH2]
- IC50 (μM) [2]: NDI

Molecule: Ac-MDIELVMI [Mxi2, M D I E L V M I, reference compound]
- IC50 [3]: > 500 µM

Molecule: H-SHWWGGWL-NH2 [hOmi_n1_t1, S H W W G G W L]
- IC50 [1]: 17.6 ± 3.9 µM

Molecule: Ac-SWTMFAV [hOmi_c1_A2, S W T M F A V]
- IC50 (unit printed in the cell (mM), read-out: IC50): > 1000 µM

Second part, the molecule after the results:

- fold lower affinity relative to SHWWGGWLG (hOmi_n1) (truncation series of SHWWGGWLG, C terminus amidated): 3 fold
Molecule: NC(=O)[C@H](Cc1c[nH]c2ccccc12)NC(=O)[C@H](Cc1c[nH]c2ccccc12)NC(=O)[C@H](Cc1c[nH]cn1)NC(=O)[C@@H](N)CO [hOmi_n1_t5, S H W W] (H-SHWW-NH2)

- IC50 (μM) [2]: NDI
Molecule: SHWWGG [hOmi_n1_t3, S H W W G G]

- IC50 [1]: 108 ± 32.2 µM
- effect on binding to Omi PDZ, in words (SHWWGGWLG series) (truncations of SHWWGGWLG (libN), C terminus amidated): comparable affinity as tetrapeptide SHWW
Molecule: NC(=O)[C@H](Cc1c[nH]c2ccccc12)NC(=O)[C@H](Cc1c[nH]c2ccccc12)NC(=O)[C@@H](N)Cc1c[nH]cn1 [hOmi_n1_t9, H W W] (H-His-Trp-Trp-NH2)

- IC50 (μM) [2]: NDI
Molecule: WWGGWLG [hOmi_n1_t7, W W G G W L G]

- IC50 (μM) [2]: NDI
Molecule: S H W W G (SHWWG) [hOmi_n1_t4]

- IC50 (μM) [2]: NDI
Molecule: WGGWLG [hOmi_n1_t8, W G G W L G]

— patent US20060003348A1, “Omi PDZ modulators” (GENENTECH. INC., priority 2004, published 2006)
